Data on 2 compounds can be found in BindingDB's records for doi:10.1021/jm4017448 (China Pharmaceutical University, 2013).

For the experiment, the target named is Glucagon-like peptide 1 receptor (Homo sapiens, UniProt P43220). The experiment in a line: Activation of human GLP-1 receptor overexpressed in HEK293 cells assessed as cAMP accumulation after 20 mins by HTRF assay.

Molecules are shown by their SMILES.

Chain of Glucagon-like peptide 1 receptor (P43220 whole entry): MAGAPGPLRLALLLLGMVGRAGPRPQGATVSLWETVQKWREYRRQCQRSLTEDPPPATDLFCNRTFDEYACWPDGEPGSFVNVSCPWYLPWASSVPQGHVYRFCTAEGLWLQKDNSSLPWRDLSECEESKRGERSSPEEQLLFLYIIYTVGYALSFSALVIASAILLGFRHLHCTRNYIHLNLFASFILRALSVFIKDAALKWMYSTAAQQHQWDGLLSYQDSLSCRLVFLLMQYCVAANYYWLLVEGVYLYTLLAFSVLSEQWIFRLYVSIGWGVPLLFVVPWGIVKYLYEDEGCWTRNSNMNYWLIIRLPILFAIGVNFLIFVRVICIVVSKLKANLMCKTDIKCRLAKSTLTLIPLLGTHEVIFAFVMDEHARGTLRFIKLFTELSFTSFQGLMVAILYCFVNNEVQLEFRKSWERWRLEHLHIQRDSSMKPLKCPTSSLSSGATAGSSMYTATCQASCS

Regarding `CC[C@H](C)[C@H](NC(=O)[C@H](Cc1ccccc1)NC(=O)[C@H](CCC(=O)O)NC(=O)[C@H](CCCCN)NC(=O)[C@H](C)NC(=O)[C@H](C)NC(=O)[C@H](CCC(N)=O)NC(=O)CNC(=O)[C@H](CCC(=O)O)NC(=O)[C@H](CC(C)C)NC(=O)[C@H](Cc1ccc(O)cc1)NC(=O)[C@H](CO)NC(=O)[C@H](CO)NC(=O)[C@@H](NC(=O)[C@H](CC(=O)O)NC(=O)[C@H](CO)NC(=O)[C@@H](NC(=O)[C@H](Cc1ccccc1)NC(=O)[C@@H](NC(=O)CNC(=O)[C@H](CCC(=O)O)NC(=O)CNC(=O)[C@@H](N)Cc1cnc[nH]1)[C@@H](C)O)[C@@H](C)O)C(C)C)C(=O)N[C@@H](C)C(=O)N[C@@H](Cc1c[nH]c2ccccc12)C(=O)N[C@@H](CC(C)C)C(=O)N[C@H](C(=O)N[C@@H](CCCCN)C(=O)NCC(=O)N[C@@H](CCCNC(=N)N)C(=O)N[C@@H](CSC1CC(=O)N(CCCCCC(=O)Nc2ccc(C(c3c(O)c4ccccc4oc3=O)c3c(O)c4ccccc4oc3=O)cc2)C1=O)C(N)=O)C(C)C` (some centres not stated), the EC50 amounted to 3 pM.

Consider `CC[C@H](C)[C@H](NC(=O)[C@H](Cc1ccccc1)NC(=O)[C@H](CCC(=O)O)NC(=O)[C@H](CS)NC(=O)[C@H](C)NC(=O)[C@H](C)NC(=O)[C@H](CCC(N)=O)NC(=O)CNC(=O)[C@H](CCC(=O)O)NC(=O)[C@H](CC(C)C)NC(=O)[C@H](Cc1ccc(O)cc1)NC(=O)[C@H](CO)NC(=O)[C@H](CO)NC(=O)[C@@H](NC(=O)[C@H](CC(=O)O)NC(=O)[C@H](CO)NC(=O)[C@@H](NC(=O)[C@H](Cc1ccccc1)NC(=O)[C@@H](NC(=O)CNC(=O)[C@H](CCC(=O)O)NC(=O)CNC(=O)[C@@H](N)Cc1cnc[nH]1)[C@@H](C)O)[C@@H](C)O)C(C)C)C(=O)N[C@@H](C)C(=O)N[C@@H](Cc1c[nH]c2ccccc12)C(=O)N[C@@H](CC(C)C)C(=O)N[C@H](C(=O)N[C@@H](CCCCN)C(=O)NCC(=O)N[C@@H](CCCNC(=N)N)C(N)=O)C(C)C`, for which the EC50 was 3 pM.
